Measured values: PubChem BioAssay (NCI)
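Five concentrations, 48 hours, 96-well plates. At the GI50, growth is halved. The concentration for full growth arrest is given as TGI.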

Assays:
Test in all cases: NCI anticancer screen, dose series, 48 h
A498 renal = system: A498 renal
SF-268 CNS = system: SF-268 CNS
SK-MEL-5 melanoma = system: SK-MEL-5 melanoma
HCT-15 colon = system: HCT-15 colon
T-47D breast = system: T-47D breast
SK-MEL-2 melanoma = system: SK-MEL-2 melanoma
UO-31 renal = system: UO-31 renal
CCRF-CEM leukemia = system: CCRF-CEM leukemia
NCI/ADR-RES ovarian = system: NCI/ADR-RES ovarian
OVCAR-8 ovarian = system: OVCAR-8 ovarian
NCI-H460 lung = system: NCI-H460 lung
SF-539 CNS = system: SF-539 CNS
IGROV1 ovarian = system: IGROV1 ovarian
LOX IMVI melanoma = system: LOX IMVI melanoma
HOP-62 NSCLC = system: HOP-62 NSCLC
MDA-MB-231 breast = system: MDA-MB-231 breast
OVCAR-3 ovarian = system: OVCAR-3 ovarian
M14 melanoma = system: M14 melanoma
MDA-MB-435 = system: MDA-MB-435
CAKI-1 renal = system: CAKI-1 renal
UACC-62 melanoma = system: UACC-62 melanoma
RXF 393 renal = system: RXF 393 renal
SW-620 colon = system: SW-620 colon
A549 NSCLC = system: A549 NSCLC
KM12 colon = system: KM12 colon
K-562 leukemia = system: K-562 leukemia
HCC-2998 colon = system: HCC-2998 colon
SN12C renal = system: SN12C renal
MALME-3M melanoma = system: MALME-3M melanoma
SNB-75 CNS = system: SNB-75 CNS
NCI-H226 lung = system: NCI-H226 lung
OVCAR-4 ovarian = system: OVCAR-4 ovarian
SK-OV-3 ovarian = system: SK-OV-3 ovarian
U251 CNS = system: U251 CNS
BT-549 breast = system: BT-549 breast
NCI-H23 lung = system: NCI-H23 lung
SNB-19 CNS = system: SNB-19 CNS
EKVX NSCLC = system: EKVX NSCLC
COLO 205 colon = system: COLO 205 colon
NCI-H522 lung = system: NCI-H522 lung
DU-145 prostate = system: DU-145 prostate
RPMI-8226 leukemia = system: RPMI-8226 leukemia
SK-MEL-28 melanoma = system: SK-MEL-28 melanoma
HCT-116 colon = system: HCT-116 colon
786-0 renal = system: 786-0 renal
HL-60(TB) leukemia = system: HL-60(TB) leukemia
HS 578T breast = system: HS 578T breast
MOLT-4 leukemia = system: MOLT-4 leukemia
UACC-257 melanoma = system: UACC-257 melanoma
MCF7 breast = system: MCF7 breast
SF-295 CNS = system: SF-295 CNS
ACHN renal = system: ACHN renal
OVCAR-5 ovarian = system: OVCAR-5 ovarian
HT29 colon = system: HT29 colon
PC-3 prostate = system: PC-3 prostate
HOP-92 NSCLC = system: HOP-92 NSCLC
TK-10 renal = system: TK-10 renal

## COc1ccc2c(c1)O/C(=C\c1cccc(OCC(=O)Nc3nc4c(s3)CCCC4)c1)C2=O
A498 renal
  GI50: > 42.5 µM
  TGI: > 100 µM
SF-268 CNS
  GI50: 5.33 µM
  TGI: 12.3 µM
SK-MEL-5 melanoma
  GI50: > 71.8 µM
  TGI: > 100 µM
HCT-15 colon
  GI50: 18.1 µM
  TGI: > 100 µM
T-47D breast
  GI50: 6.39 µM
  TGI: > 100 µM
SK-MEL-2 melanoma
  GI50: 12.5 µM
  TGI: > 30.6 µM
UO-31 renal
  GI50: 1.69 µM
  TGI: 3.15 µM
CCRF-CEM leukemia
  GI50: 2.07 µM
  TGI: 7.79 µM
NCI/ADR-RES ovarian
  GI50: 60.8 µM
  TGI: > 100 µM
OVCAR-8 ovarian
  GI50: > 21.7 µM
  TGI: > 70.4 µM
NCI-H460 lung
  GI50: > 100 µM
  TGI: > 100 µM
SF-539 CNS
  GI50: 16.7 µM
  TGI: 44.1 µM
IGROV1 ovarian
  GI50: 0.692 µM
  TGI: 2.17 µM
LOX IMVI melanoma
  GI50: 1.16 µM
  TGI: 3.32 µM
HOP-62 NSCLC
  GI50: > 34 µM
  TGI: > 55.4 µM
MDA-MB-231 breast
  GI50: 6.58 µM
  TGI: > 53.9 µM
OVCAR-3 ovarian
  GI50: 2.98 µM
  TGI: 7.63 µM
M14 melanoma
  GI50: > 100 µM
  TGI: > 100 µM
MDA-MB-435
  GI50: > 43.3 µM
  TGI: > 100 µM
CAKI-1 renal
  GI50: 4.66 µM
  TGI: > 100 µM
UACC-62 melanoma
  GI50: > 46.2 µM
  TGI: > 100 µM
RXF 393 renal
  GI50: 2.11 µM
  TGI: 4.48 µM
SW-620 colon
  GI50: > 100 µM
  TGI: > 100 µM
A549 NSCLC
  GI50: 29 µM
  TGI: > 100 µM
KM12 colon
  GI50: 10.4 µM
  TGI: > 100 µM
K-562 leukemia
  GI50: 4.08 µM
  TGI: > 78.3 µM
HCC-2998 colon
  GI50: > 100 µM
  TGI: > 100 µM
SN12C renal
  GI50: 4.78 µM
  TGI: > 100 µM
MALME-3M melanoma
  GI50: 2.39 µM
  TGI: 5.34 µM
SNB-75 CNS
  GI50: 11.5 µM
  TGI: 54.9 µM
NCI-H226 lung
  GI50: > 100 µM
  TGI: > 100 µM
OVCAR-4 ovarian
  GI50: > 100 µM
  TGI: > 100 µM
SK-OV-3 ovarian
  GI50: > 72.6 µM
  TGI: > 100 µM
U251 CNS
  GI50: 2.8 µM
  TGI: 8.31 µM
BT-549 breast
  GI50: > 51.1 µM
  TGI: > 100 µM
NCI-H23 lung
  GI50: 5.52 µM
  TGI: > 100 µM
SNB-19 CNS
  GI50: 44.6 µM
  TGI: > 100 µM
EKVX NSCLC
  GI50: > 66.3 µM
  TGI: > 100 µM
COLO 205 colon
  GI50: > 100 µM
  TGI: > 100 µM
NCI-H522 lung
  GI50: 3.79 µM
  TGI: 13.9 µM
DU-145 prostate
  GI50: 5.01 µM
  TGI: 19.7 µM
RPMI-8226 leukemia
  GI50: 3.41 µM
  TGI: > 33.2 µM
SK-MEL-28 melanoma
  GI50: > 100 µM
  TGI: > 100 µM
HCT-116 colon
  GI50: > 43.8 µM
  TGI: > 100 µM
786-0 renal
  TGI: > 19.9 µM
HL-60(TB) leukemia
  GI50: 3.32 µM
  TGI: 18.5 µM
HS 578T breast
  GI50: 35.1 µM
  TGI: > 100 µM
MOLT-4 leukemia
  GI50: 4.5 µM
  TGI: 98.7 µM
UACC-257 melanoma
  GI50: > 100 µM
  TGI: > 100 µM
MCF7 breast
  GI50: 12.8 µM
  TGI: > 100 µM
SF-295 CNS
  TGI: > 43.2 µM
ACHN renal
  GI50: 4.43 µM
  TGI: 33.6 µM
OVCAR-5 ovarian
  GI50: > 40.6 µM
  TGI: > 78.8 µM
HT29 colon
  GI50: 25.1 µM
  TGI: > 100 µM
PC-3 prostate
  GI50: 12.7 µM
  TGI: > 60.1 µM
HOP-92 NSCLC
  GI50: 3.68 µM
  TGI: 18.5 µM
TK-10 renal
  GI50: > 100 µM
  TGI: > 100 µM
